Key:
[1] = ABTS^● decolorization assay; conditions: 30 min incubation at room temperature, absorbance at 734 nm
[2] = DPPH^● decolorization assay; conditions: 30 min at ambient temperature in the dark, absorbance at 517 nm
Outline: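 Increasing amounts of compound react with 0.3 mM DPPH radical in methanol for 30 min at ambient temperature in the dark, read at 517 nm.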

[3] = Ferric reducing antioxidant power (FRAP) assay; conditions: 30 min at ambient temperature, pH 3.6, absorbance at 593 nm
Outline: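 Compounds were incubated 30 min at ambient temperature with FRAP reagent (0.3 M acetate buffer pH 3.6, TPTZ in HCl, FeCl3), and Fe2+-TPTZ absorbance was read at 593 nm. Activity was the ratio of the absorbance-vs-concentration slope to that of Trolox, expressed as mol Trolox equivalents per mol compound.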

[4] = system: SKOV-3 ovarian cancer cells; assay: Cytotoxicity (Neutral Red), SKOV-3 cells; assay type: cell-based, human; conditions: 24 h exposure
Outline: (§1)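 Cells seeded 1 × 10^4 (SKOV-3, MRC-5) or 1.5 × 10^4 (PEO1) per well, grown 24 h, then exposed to compound for 24 h at 37 °C, 5% CO2 (≤0.02% DMSO); untreated cells as control. Viability by Neutral Red uptake (1 h), dye extracted with water/ethanol/acetic acid, absorbance at 540 nm against 620 nm.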

[5] = system: PEO1 ovarian cancer cells; assay: Cytotoxicity (Neutral Red), PEO1 cells; assay type: cell-based, human; conditions: 24 h exposure
Outline: as §1

[6] = system: MRC-5 fibroblasts; assay: Cytotoxicity (Neutral Red), MRC-5 fibroblasts; assay type: cell-based, human; conditions: 24 h exposure
Outline: as §1

[7] = parameters: method as in PMID 17312965; conditions: cited from earlier work
[8] = system: microsomal lipid peroxidation; parameters: method as in PMID 16822206; conditions: cited from earlier work
[9] = system: cervical squamous carcinoma SiHa cells; parameters: method as in PMID 30783417; conditions: 50 nM, 24 h exposure; cited from earlier work
[10] = system: gastric carcinoma AGS cells; parameters: method as in PMID 15911108; conditions: 24 h exposure, cited from earlier work
[11] = system: MDA-MB-231 breast cancer cells; parameters: method as in PMID 34626309; conditions: 24 h exposure, cited from earlier work
[12] = system: MCF-7 breast cancer cells; parameters: method as in PMID 34626309; conditions: 24 h exposure, cited from earlier work
[13] = system: SKOV-3 cells; parameters: method as in PMID 25097657; conditions: 24 h exposure, cited from earlier work
[14] = system: U251 glioma cells; parameters: method as in PMID 29436625; conditions: 24 h exposure, cited from earlier work
[15] = system: U87MG human glioblastoma cells; parameters: method as in PMID 22552443; conditions: 24 h exposure, cited from earlier work
[16] = system: SGC7901 human gastric adenocarcinoma cells; parameters: method as in PMID 21042755; conditions: 120 μg/mL (i.e., ca. 0.74 mM), 24 h exposure; cited from earlier work
[17] = system: breast cancer MCF-7 cells; parameters: method as in PMID 32286702; conditions: 24 h exposure; read-out: Concentration lowering viability of MCF-7 cells to 50%; cited from earlier work
[18] = system: breast cancer HCC-70 cells; parameters: method as in PMID 32286702; conditions: 24 h exposure; read-out: Concentration lowering viability of HCC-70 cells to 50%; cited from earlier work
[19] = in the concentration range studied

## C=CCS[S+]([O-])CC=C (stereo not drawn) [Allicin, S-(prop-2-en-1-yl)prop-2-ene-1-sulfinothioate]
[1]
  Antioxidant activity, ABTS^● Decolorization: −0.038 ± 0.020 mol Trolox equivalents (TE)/mol compound
[2]
  Antioxidant activity, DPPH^● Decolorization: −0.023 ± 0.009 mol Trolox equivalents (TE)/mol compound
[3]
  Antioxidant activity, FRAP: −0.0014 ± 0.0016 mol Trolox equivalents (TE)/mol compound
[4]; Homo sapiens, SK-OV-3, Neutral Red, read-out: IC50 SKOV-3
  IC50: 236 µM
[4]; [19]
  Effect on viability of SKOV-3 cells: did not significantly lower the viability
[5]; Homo sapiens, PEO1, Neutral Red, read-out: IC50 PEO1
  IC50: 282 µM
[5]; [19]
  Effect on viability of PEO1 cells: did not significantly lower the viability
[6]; p < 0.05
  Concentration at which viability of MRC-5 cells was lowered: 100 µM
[6]; Homo sapiens, MRC5, Neutral Red, read-out: IC50 MRC-5
  IC50: 120 µM
[7]
  Reaction rate constant with cumene peroxyl radicals: 2600 M⁻¹ s⁻¹
[8]
  Termination of lipid peroxidation / prevention of induced microsomal lipid peroxidation: ineffective
[9]
  SiHa cell viability (decreased to): ca. 60%
[10]; converted from μg/mL, read-out: Concentration diminishing survival of AGS cells to ca. 50%
  IC50: ~62 µM
[10]
  Concentration diminishing survival of AGS cells to ca. 50%: 10 µg/mL
[11]; converted from μg/mL, read-out: Concentration lowering survival of MDA-MB-231 cells by 50%
  IC50: ~111 µM
[11]
  Concentration lowering survival of MDA-MB-231 cells by 50%: about 18 μg/mL
[12]; converted from μg/mL, read-out: Concentration lowering survival of MCF-7 cells by 50%
  IC50: ~43 µM
[12]
  Concentration lowering survival of MCF-7 cells by 50%: about 7 μg/mL
[13]; converted from μg/mL, read-out: Concentration reducing viability of SKOV-3 cells to 50%
  IC50: 430 to 490 µM
[13]
  Concentration reducing viability of SKOV-3 cells to 50%: 70 to 80 µg/mL
[14]; converted from μg/mL, read-out: Concentration reducing viability of U251 glioma cells to 50%
  IC50: 247 µM
[14]
  Concentration reducing viability of U251 glioma cells to 50%: ca. 40 μg/mL
[15]; converted, read-out: Concentration reducing viability of U87MG glioblastoma cells to 50%
  IC50: 550 µM
[15]
  Concentration reducing viability of U87MG glioblastoma cells to 50%: ca. 90 /mL μg
[16]
  Decrease in the survival of SGC7901 cells: ca. 25%
[17]
  IC50: ~15 µM
[18]
  IC50: ~10 µM
